In ChEMBL document CHEMBL3286253, “Design, synthesis, and structure-activity relationship studies of novel thioether pleuromutilin derivatives as potent antibacterial agents” (J Med Chem, 2014):
In brackets after ≈: the same amount, converted by molar mass.

How the values were obtained:
Format in all cases: functional
[1] = tested on: Streptococcus pneumoniae; assay: Antibacterial activity against penicillin-resistant Streptococcus pneumoniae after 16 hrs by agar dilution method
[2] = tested on: Staphylococcus aureus; assay: Antibacterial activity against methicillin-resistant Staphylococcus aureus after 16 hrs by agar dilution method
[3] = tested on: Staphylococcus aureus; assay: Antibacterial activity against Staphylococcus aureus […] after 16 hrs by agar dilution method
[4] = tested on: Staphylococcus aureus; assay: Antibacterial activity against methicillin-sensitive Staphylococcus aureus after 16 hrs by agar dilution method
[5] = tested on: Staphylococcus epidermidis; assay: Antibacterial activity against methicillin-sensitive Staphylococcus epidermidis after 16 hrs by agar dilution method
[6] = tested on: Staphylococcus epidermidis; assay: Antibacterial activity against methicillin-resistant Staphylococcus epidermidis after 16 hrs by agar dilution method

| SMILES | MIC [1] [µg/mL] | MIC [2] [µg/mL] | MIC [3] [µg/mL] | MIC [4] [µg/mL] | MIC [5] [µg/mL] | MIC [6] [µg/mL] |
| --- | --- | --- | --- | --- | --- | --- |
| C=C[C@]1(C)C[C@@H](OC(=O)CSc2cccs2)[C@]2(C)[C@H](C)CC[C@]3(CCC(=O)[C@H]32)[C@@H](C)[C@@H]1O | 0.125 (≈ 0.262 µM) | 0.5 (≈ 1.05 µM) | 0.5 (≈ 1.05 µM) | 0.5 (≈ 1.05 µM) | 0.25 (≈ 0.524 µM) | 0.25 (≈ 0.524 µM) |
| C=C[C@]1(C)C[C@@H](OC(=O)CSc2nccs2)[C@]2(C)[C@H](C)CC[C@]3(CCC(=O)[C@H]32)[C@@H](C)[C@@H]1O | 0.5 (≈ 1.05 µM) | 0.5 (≈ 1.05 µM) | 0.5 (≈ 1.05 µM) | 0.5 (≈ 1.05 µM) | 0.25 (≈ 0.523 µM) | 0.25 (≈ 0.523 µM) |
| C=C[C@]1(C)C[C@@H](OC(=O)CSc2cnccn2)[C@]2(C)[C@H](C)CC[C@]3(CCC(=O)[C@H]32)[C@@H](C)[C@@H]1O | 0.125 (≈ 0.264 µM) | 0.125 (≈ 0.264 µM) | 0.25 (≈ 0.529 µM) | 0.125 (≈ 0.264 µM) | 0.125 (≈ 0.264 µM) | 0.125 (≈ 0.264 µM) |
| C=C[C@]1(C)C[C@@H](OC(=O)CSc2ncccn2)[C@]2(C)[C@H](C)CC[C@]3(CCC(=O)[C@H]32)[C@@H](C)[C@@H]1O | 0.125 (≈ 0.264 µM) | 0.063 (≈ 0.133 µM) | 0.125 (≈ 0.264 µM) | 0.125 (≈ 0.264 µM) | 0.125 (≈ 0.264 µM) | 0.063 (≈ 0.133 µM) |
| C=C[C@]1(C)C[C@@H](OC(=O)CSc2cccnn2)[C@]2(C)[C@H](C)CC[C@]3(CCC(=O)[C@H]32)[C@@H](C)[C@@H]1O | 0.125 (≈ 0.264 µM) | 0.25 (≈ 0.529 µM) | 0.25 (≈ 0.529 µM) | 0.125 (≈ 0.264 µM) | 0.063 (≈ 0.133 µM) | 0.063 (≈ 0.133 µM) |
| C=C[C@]1(C)C[C@@H](OC(=O)CSc2cccnc2)[C@]2(C)[C@H](C)CC[C@]3(CCC(=O)[C@H]32)[C@@H](C)[C@@H]1O | 0.125 (≈ 0.265 µM) | 0.125 (≈ 0.265 µM) | 0.25 (≈ 0.53 µM) | 0.125 (≈ 0.265 µM) | 0.125 (≈ 0.265 µM) | 0.25 (≈ 0.53 µM) |
| C=C[C@]1(C)C[C@@H](OC(=O)CSc2ccncc2)[C@]2(C)[C@H](C)CC[C@]3(CCC(=O)[C@H]32)[C@@H](C)[C@@H]1O | 0.063 (≈ 0.134 µM) | 0.063 (≈ 0.134 µM) | 0.031 (≈ 0.0657 µM) | 0.063 (≈ 0.134 µM) | 0.063 (≈ 0.134 µM) | 0.063 (≈ 0.134 µM) |
| C=C[C@]1(C)C[C@@H](OC(=O)CSc2cncc(C(=O)OC)c2)[C@]2(C)[C@H](C)CC[C@]3(CCC(=O)[C@H]32)[C@@H](C)[C@@H]1O | 0.25 (≈ 0.472 µM) | 0.125 (≈ 0.236 µM) | 1 (≈ 1.89 µM) | 1 (≈ 1.89 µM) | 1 (≈ 1.89 µM) | 0.25 (≈ 0.472 µM) |
| C=C[C@]1(C)C[C@@H](OC(=O)CSc2cncc(OC)c2)[C@]2(C)[C@H](C)CC[C@]3(CCC(=O)[C@H]32)[C@@H](C)[C@@H]1O | 0.125 (≈ 0.249 µM) | 0.125 (≈ 0.249 µM) | 1 (≈ 1.99 µM) | 0.125 (≈ 0.249 µM) | 2 (≈ 3.99 µM) | 0.125 (≈ 0.249 µM) |
| C=C[C@]1(C)C[C@@H](OC(=O)CSc2cncc(F)c2)[C@]2(C)[C@H](C)CC[C@]3(CCC(=O)[C@H]32)[C@@H](C)[C@@H]1O | 0.25 (≈ 0.511 µM) | 0.25 (≈ 0.511 µM) | 0.5 (≈ 1.02 µM) | 0.25 (≈ 0.511 µM) | 0.125 (≈ 0.255 µM) | 0.25 (≈ 0.511 µM) |
| C=C[C@]1(C)C[C@@H](OC(=O)CSc2ccc(CO)nc2)[C@]2(C)[C@H](C)CC[C@]3(CCC(=O)[C@H]32)[C@@H](C)[C@@H]1O | 0.063 (≈ 0.126 µM) | 0.031 (≈ 0.0618 µM) | 0.5 (≈ 0.997 µM) | 0.063 (≈ 0.126 µM) | 0.25 (≈ 0.498 µM) | 0.031 (≈ 0.0618 µM) |
| C=C[C@]1(C)C[C@@H](OC(=O)CSc2cncc(O)c2)[C@]2(C)[C@H](C)CC[C@]3(CCC(=O)[C@H]32)[C@@H](C)[C@@H]1O | 0.063 (≈ 0.129 µM) | 0.063 (≈ 0.129 µM) | 0.125 (≈ 0.256 µM) | 0.063 (≈ 0.129 µM) | 0.063 (≈ 0.129 µM) | 0.063 (≈ 0.129 µM) |
| C=C[C@]1(C)C[C@@H](OC(=O)CSc2ccc(N)nc2)[C@]2(C)[C@H](C)CC[C@]3(CCC(=O)[C@H]32)[C@@H](C)[C@@H]1O | 0.063 (≈ 0.129 µM) | 0.063 (≈ 0.129 µM) | 0.125 (≈ 0.257 µM) | 0.125 (≈ 0.257 µM) | 0.5 (≈ 1.03 µM) | 0.063 (≈ 0.129 µM) |
| C=C[C@]1(C)C[C@@H](OC(=O)CSc2cncc(/C=N/O)c2)[C@]2(C)[C@H](C)CC[C@]3(CCC(=O)[C@H]32)[C@@H](C)[C@@H]1O | 0.063 (≈ 0.122 µM) | 0.063 (≈ 0.122 µM) | 0.063 (≈ 0.122 µM) | 0.063 (≈ 0.122 µM) | 0.063 (≈ 0.122 µM) | 0.063 (≈ 0.122 µM) |
| C=C[C@]1(C)C[C@@H](OC(=O)CSc2cncc(/C=N/N)c2)[C@]2(C)[C@H](C)CC[C@]3(CCC(=O)[C@H]32)[C@@H](C)[C@@H]1O | 0.25 (≈ 0.487 µM) | 0.25 (≈ 0.487 µM) | 0.25 (≈ 0.487 µM) | 0.25 (≈ 0.487 µM) | 0.25 (≈ 0.487 µM) | 0.25 (≈ 0.487 µM) |
| C=C[C@]1(C)C[C@@H](OC(=O)CSc2cncc(/C=N/OC)c2)[C@]2(C)[C@H](C)CC[C@]3(CCC(=O)[C@H]32)[C@@H](C)[C@@H]1O | 0.5 (≈ 0.946 µM) | 0.25 (≈ 0.473 µM) | 0.125 (≈ 0.236 µM) | 0.125 (≈ 0.236 µM) | 0.25 (≈ 0.473 µM) | 0.25 (≈ 0.473 µM) |
